Read-outs that look alike come from different tables or passages of the source.
Tests used:
[1] = Plasma metabolites and pharmacokinetics after single intake of lemon or orange extract (UPLC-ESI-QTOF-MS, non-compartmental analysis); assay type: in vivo, human; settings: for Occurrence Plasma LE (number of volunteers in whom the metabolite was detected): after consuming lemon extract; for Occurrence Plasma LE (number of volunteers in whom the metabolite was detected) / Occurrence Plasma OE (number of volunteers in whom the metabolite was detected): n = 16 volunteers; for Occurrence Plasma OE (number of volunteers in whom the metabolite was detected): after consuming orange extract; for Tmax / Cmax / AUC(0-t): mean ± SD; for AUC(0-t): read-out: AUC0-t
Excerpt: Secondary endpoints involved the evaluation of post-prandial changes in several biomarkers dealing with metabolism, inflammation, and oxidative stress after a high-fat-high-sugars meal. The design was a randomized pharmacokinetic, double-blind, crossover, single-dose trial consisted of 2 test-phases. The volunteers were randomly allocated into two groups using a computerized random number list. Each group consumed one of the citrus extracts by following a test-phase that lasted for 1 day for blood sampling and urine collection, a 2-week washout period between each test phase, and crossover before consuming the other extract. The volunteers were instructed to avoid the consumption of flavanone-containing products, from a list provided by the researchers, for 1 week before the study and during the wash-out phase (citrus fruit juices, tomatoes, tomato-based sauces (like ‘ketchup’), peppers, almonds, etc.). […] The 3 capsules provided a total of 1.95 g orange extract, containing 260 mg hesperidin, and 3.1 g lemon extract, containing 260 mg eriocitrin. […] Plasma samples were obtained by centrifugation of peripheral venous blood at 14,000× g for 15 min at 4 °C and immediately frozen at −80 °C. Glucose, total cholesterol, HDL-cholesterol, LDL-cholesterol, triglycerides, insulin, homeostatic model assessment insulin resistance (HOMA-IR), gamma-glutamyl transferase (GGT), and alanine aminotransferase (ALT) were determined as previously reported. […] A previously validated method for analyzing phenolic metabolites in biological samples, including flavanone-derived metabolites, was used. […] After centrifugation at 14,000× g for 10 min at 4 °C, the supernatant was evaporated in a speed vacuum concentrator. Finally, samples were re-suspended in 100 µL of methanol, filtered through a 0.22 µm cellulose filters before analysis by UPLC- ESI-QTOF-MS. A targeted screening strategy was applied to identify metabolites that could be present after consuming the citrus extracts. Twenty-eight possible compounds were browsed in all the samples. The list of compounds included the polyphenols present in the extracts, with particular focus on the flavanone rutinosides hesperidin and eriocitrin, their respective aglycones hesperetin, and eriodictyol, as well as their derived phase-II conjugates (glucuronides, sulfates, sulfoglucuronides, etc.). The exact mass of each proposed compound was extracted using an extraction window of 0.01 m/z. The metabolites hesperetin 7-O-glucuronide, hesperetin 3′-O-glucuronide, hesperetin 3-O-sulfate, naringenin 4′-O-glucuronide, and naringenin 7′-O-glucuronide were quantified with their corresponding standards. […] The parent phenolic compounds were quantified with their corresponding standards. In the case of some relevant conjugated metabolites, which standards were not available (eriodictyol and homoeriodictyol conjugates), their quantification was achieved by using relative response factors (RRFs) as previously described. Briefly, RRFs are useful to check the different responses of metabolites in the mass spectrometer vs. their UV signal. While the ionization response of free vs. conjugated forms is usually very different, their UV signal response is quite similar. To this purpose, we injected in a HPLC-DAD-ESI-Q (MS) the plasma samples (n = 5) with the highest concentrations of those conjugated metabolites. Concentrations were calculated by integrating the area from their corresponding UV peaks and compared with the UV peak area of a known concentration of their corresponding available parent compounds (eriodictyol and homoeriodictyol). The concentrations calculated were used to compare the MS response for each conjugated-aglycone pair. Statistical analyses were carried out using the SPSS Software, version 23.0 (SPSS Inc., Chicago, IL, USA). Data are expressed as mean ± SD. The empirical distribution of data with the normality assumption was tested with the Shapiro-Wilk test. […]

[2] = Urinary excretion of flavanone-derived metabolites after single intake of lemon or orange extract (UPLC-ESI-QTOF-MS); assay type: in vivo, human; settings: for Urinary excretion F1: urine fraction 0-4 h; for Urinary excretion F1 / Urinary excretion Total F / Urinary excretion F2 / Urinary excretion F3 / Urinary excretion F4: mean ± SD; for Urinary excretion Total F: sum of fractions F1-F4 (24 h); for Urinary excretion F2: urine fraction 4-8 h; for Urinary excretion F3: urine fraction 8-10 h; for Urinary excretion F4: urine fraction 10-24 h; for Occurrence Urine LE (number of volunteers in whom the metabolite was detected): after consuming lemon extract; for Occurrence Urine LE (number of volunteers in whom the metabolite was detected) / Occurrence Urine OE (number of volunteers in whom the metabolite was detected): n = 16 volunteers; for Occurrence Urine OE (number of volunteers in whom the metabolite was detected): after consuming orange extract
Excerpt: Secondary endpoints involved the evaluation of post-prandial changes in several biomarkers dealing with metabolism, inflammation, and oxidative stress after a high-fat-high-sugars meal. The design was a randomized pharmacokinetic, double-blind, crossover, single-dose trial consisted of 2 test-phases. The volunteers were randomly allocated into two groups using a computerized random number list. Each group consumed one of the citrus extracts by following a test-phase that lasted for 1 day for blood sampling and urine collection, a 2-week washout period between each test phase, and crossover before consuming the other extract. The volunteers were instructed to avoid the consumption of flavanone-containing products, from a list provided by the researchers, for 1 week before the study and during the wash-out phase (citrus fruit juices, tomatoes, tomato-based sauces (like ‘ketchup’), peppers, almonds, etc.). […] The 3 capsules provided a total of 1.95 g orange extract, containing 260 mg hesperidin, and 3.1 g lemon extract, containing 260 mg eriocitrin. […] Untreated urine samples were aliquoted and frozen at −80 °C for up to 4 weeks until analyses, avoiding freeze-thaw cycles to avoid metabolites’ deconjugation. Moreover, three measurements of blood pressure and heart rate were taken before each time-point of blood withdrawal. […] A previously validated method for analyzing phenolic metabolites in biological samples, including flavanone-derived metabolites, was used. […] After centrifugation at 14,000× g for 10 min at 4 °C, the supernatant was evaporated in a speed vacuum concentrator. Finally, samples were re-suspended in 100 µL of methanol, filtered through a 0.22 µm cellulose filters before analysis by UPLC- ESI-QTOF-MS. […] A targeted screening strategy was applied to identify metabolites that could be present after consuming the citrus extracts. Twenty-eight possible compounds were browsed in all the samples. The list of compounds included the polyphenols present in the extracts, with particular focus on the flavanone rutinosides hesperidin and eriocitrin, their respective aglycones hesperetin, and eriodictyol, as well as their derived phase-II conjugates (glucuronides, sulfates, sulfoglucuronides, etc.). The exact mass of each proposed compound was extracted using an extraction window of 0.01 m/z. The metabolites hesperetin 7-O-glucuronide, hesperetin 3′-O-glucuronide, hesperetin 3-O-sulfate, naringenin 4′-O-glucuronide, and naringenin 7′-O-glucuronide were quantified with their corresponding standards. […] The parent phenolic compounds were quantified with their corresponding standards. In the case of some relevant conjugated metabolites, which standards were not available (eriodictyol and homoeriodictyol conjugates), their quantification was achieved by using relative response factors (RRFs) as previously described. Briefly, RRFs are useful to check the different responses of metabolites in the mass spectrometer vs. their UV signal. While the ionization response of free vs. conjugated forms is usually very different, their UV signal response is quite similar. To this purpose, we injected in a HPLC-DAD-ESI-Q (MS) the plasma samples (n = 5) with the highest concentrations of those conjugated metabolites. Concentrations were calculated by integrating the area from their corresponding UV peaks and compared with the UV peak area of a known concentration of their corresponding available parent compounds (eriodictyol and homoeriodictyol). The concentrations calculated were used to compare the MS response for each conjugated-aglycone pair.

[3] = after orange (hesperidin) extract
[4] = human, oral, 1.95 g, after orange (hesperidin) extract
[5] = human, oral, 1.95 g, after orange (hesperidin) extract, read-out: Tmax
[6] = human, oral, 3.1 g, after lemon extract
[7] = human, oral, 3.1 g, after lemon extract, read-out: Tmax
[8] = lemon extract (3.1 g, 260 mg eriocitrin)
[9] = orange extract (1.95 g, 260 mg hesperidin)

Row | Structure (SMILES) | Occurrence Plasma LE (number of volunteers in whom the metabolite was detected) [1] | Occurrence Plasma OE (number of volunteers in whom the metabolite was detected) [1] | Tmax ([1]; after lemon extract) | Tmax [1, 3] | Cmax [1, 4] | AUC(0-t) [1, 4] | Tmax [1, 5] | Cmax [1, 6] | AUC(0-t) [1, 6] | Tmax [1, 7] | Urinary excretion F1 [2, 8] | Urinary excretion Total F ([2]; lemon extract) | Urinary excretion F2 ([2]; lemon extract) | Urinary excretion F3 ([2]; lemon extract) | Urinary excretion F4 ([2]; lemon extract) | Urinary excretion F1 [2, 9] | Urinary excretion Total F ([2]; orange extract) | Urinary excretion F2 ([2]; orange extract) | Occurrence Urine LE (number of volunteers in whom the metabolite was detected) [2] | Occurrence Urine OE (number of volunteers in whom the metabolite was detected) [2] | other results
1 | O=C1CC(c2ccc(OC3OC(C(=O)O)C(O)C(O)C3O)cc2)Oc2cc(O)cc(O)c21 (centres unmarked) [M5, Naringenin 4′-O-glucuronide] | 16 | 14 | 5.7 ± 2.3 h | 7.7 ± 2.0 h | 0.0073 ± 0.0059 µM | 26.7 ± 27.7 nM·h | 7.5 h | 0.0358 ± 0.0259 µM | 129 ± 124 nM·h | 5.5 h | 0.8 ± 0.5 µg/mg creatinine | 4.2 ± 5.0 µg/mg creatinine | 1.7 ± 2.7 µg/mg creatinine | 1.3 ± 1.5 µg/mg creatinine | 0.4 ± 0.3 µg/mg creatinine | 0.1 ± 0.1 µg/mg creatinine | 1.0 ± 1.5 µg/mg creatinine | 0.3 ± 0.5 µg/mg creatinine | 16 | 16 | Urinary excretion F3 ([2]; orange extract): 0.3 ± 0.4 µg/mg creatinine; Urinary excretion F4 ([2]; orange extract): 0.3 ± 0.5 µg/mg creatinine
2 | COc1ccc(C2CC(=O)c3c(O)cc(OC4OC(C(=O)O)C(O)C(O)C4O)cc3O2)cc1O (centres unmarked) [M7, Hesperetin 7-O-glucuronide] | 16 | 16 | 6.3 ± 2.0 h | 8.3 ± 1.6 h | 0.0496 ± 0.0517 µM | 177 ± 250 nM·h | 8.5 h | 0.169 ± 0.109 µM | 703 ± 590 nM·h | 6.5 h | 1.2 ± 1.4 µg/mg creatinine | 8.5 ± 9.2 µg/mg creatinine | 4.0 ± 4.7 µg/mg creatinine | 2.7 ± 2.5 µg/mg creatinine | 0.6 ± 0.6 µg/mg creatinine | 0.2 ± 0.6 µg/mg creatinine | 5.6 ± 13.2 µg/mg creatinine | 2.1 ± 5.7 µg/mg creatinine | 16 | 16 | Urinary excretion F3 ([2]; orange extract): 2.2 ± 3.6 µg/mg creatinine; Urinary excretion F4 ([2]; orange extract): 1.1 ± 3.3 µg/mg creatinine; Urinary excretion after lemon extract vs. orange extract ([2]; ratio lemon / orange extract intake): around 2 fold
3 | COc1ccc(C2CC(=O)c3c(O)cc(O)cc3O2)cc1OC1OC(C(=O)O)C(O)C(O)C1O (centres unmarked) [M8, Hesperetin 3′-O-glucuronide] | 16 | 16 | 6.4 ± 2.0 h | 8.4 ± 1.6 h | 0.107 ± 0.129 µM | 409 ± 643 nM·h | 8.5 h | 0.199 ± 0.104 µM | 803 ± 569 nM·h | 6.5 h | 2.1 ± 2.3 µg/mg creatinine | 24.2 ± 23.7 µg/mg creatinine | 10.7 ± 11.3 µg/mg creatinine | 9.2 ± 7.7 µg/mg creatinine | 2.2 ± 2.4 µg/mg creatinine | 0.5 ± 1.5 µg/mg creatinine | 9.9 ± 18.9 µg/mg creatinine | 4.3 ± 11.5 µg/mg creatinine | 16 | 16 | Urinary excretion F3 ([2]; orange extract): 3.3 ± 4.2 µg/mg creatinine; Urinary excretion F4 ([2]; orange extract): 1.8 ± 1.6 µg/mg creatinine
4 | O=C1C[C@@H](c2ccc(O)c(O)c2)Oc2cc(O)cc(O)c21 [M12, Eriodictyol] | 16 | 0 |  |  |  |  |  |  |  |  |  |  |  |  |  |  |  |  | 14 | 4 | 
